Experimental data taken from patent US9321772B2, “Substituted pyrazolo[3,4-D]pyrimidines and uses thereof” (The Regents of the University of California, priority 2011, dated 2016).
“Also recorded” adds a separate entry of the source.

Columns and labels:
mTor = mTor (Homo sapiens, UniProt P42345); test: In vitro kinase assay, mTor; assay type: biochemical; details: in vitro kinase profile, 1 μM
Method: (§1) Using in vitro kinase assays we tested AD57, AD36, and AD58 at 1 μM for activity against approximately one-half of the human kinome (FIG. 1E): 165 Ser/Thr kinases, 91 Tyr kinases, and 10 PI kinases were assayed, totaling 266 kinases (244 distinct kinases plus 22 mutant isoforms; see FIG. 6A-6C, FIG. 7A-7F, and FIG. 8 for measured inhibition values).
(§2) At least three major pathways are required for dRet^MEN2B-mediated transformation: Ras, Src, and glucose metabolism/PI3K (FIG. 3A; Ref (Read, R. D. et al., Genetics, 2005. 171(3): p. 1057-81)). We utilized in vitro kinase assays to assess compound activity against relevant kinases from each of these pathways, specifically Ret, B-Raf, Src, Tor, and S6K (FIG. 3B).

TPC1 cells = test: AnnexinV/PI flow cytometry apoptosis assay in TPC1 cells; assay type: cell-based, human
Method: FIG. 25. TPC1 cells were grown in 6 well dishes at 70-80% confluence in growth media supplemented with 10% FBS. TPC1 cells were treated with either AD80, the MEK inhibitor PD325901 or a combination of both inhibitors at indicated concentrations for 72 h. Induction of apoptosis was measured using flow cytometry based counting of AnnexinV/PI positive cells.

S6K = S6K (Homo sapiens, UniProt P23443); test: In vitro kinase assay, S6K; assay type: biochemical; details: in vitro kinase profile, 1 μM
S6K, sequence (P23443 whole entry): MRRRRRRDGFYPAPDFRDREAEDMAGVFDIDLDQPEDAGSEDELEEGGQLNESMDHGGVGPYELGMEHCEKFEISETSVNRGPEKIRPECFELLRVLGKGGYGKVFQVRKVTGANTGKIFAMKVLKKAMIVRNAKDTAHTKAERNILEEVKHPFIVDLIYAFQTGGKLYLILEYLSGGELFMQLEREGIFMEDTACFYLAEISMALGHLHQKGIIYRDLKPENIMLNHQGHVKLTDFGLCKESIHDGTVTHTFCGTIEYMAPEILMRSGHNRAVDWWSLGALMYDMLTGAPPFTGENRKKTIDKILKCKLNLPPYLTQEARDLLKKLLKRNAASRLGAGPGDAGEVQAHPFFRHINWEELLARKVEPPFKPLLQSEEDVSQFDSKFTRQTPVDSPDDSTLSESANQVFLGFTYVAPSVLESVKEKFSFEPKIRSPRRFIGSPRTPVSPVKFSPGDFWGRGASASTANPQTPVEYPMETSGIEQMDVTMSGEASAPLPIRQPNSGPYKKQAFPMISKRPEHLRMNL
Method: as §1, §2

[1] = test system: MEN2A (TT) thyroid cancer cells; test: Immunoblot analysis of drug-treated TT cells; assay type: cell-based, human; details: for phospho-Ret and downstream biomarkers: 1 hour of treatment; for cell death (protein markers of apoptosis): 3 days, 2 μM
Method: FIG. 19. […] MEN2A (TT) and MEN2B (MZ) thyroid cancer cells were treated with the indicated drugs for 3 days at a final concentration of 2 μM. Cell lystates were immunoblotted for protein markers of apoptosis. Vandetanib (vand.) was included for comparison.
FIG. 20A-20B. […] FIG. 20A. MEN2B (MZ) and FIG. 20B. MEN2A (TT) thyroid cancer cells were treated with the indicated concentrations of drug. Following 1 hour of treatment, cells were harvested and lysates prepared for immunoblotting to detect the indicated proteins. VD=vandetanib; SF=sorafenib.

[2] = test system: MZ-CRC-1 (MEN2B) cancer cell line; test: MZ-CRC-1 cell viability (MTT assay); assay type: cell-based, human
[3] = test system: TT (MEN2A) thyroid cancer cells; test: TT cell viability (MTT assay); assay type: cell-based, human
Method: FIG. 18A-18D. […] FIG. 18A. MEN2B (MZ) thyroid cancer cells were treated with the indicated concentrations of each inhibitor (7 days) and cell viability was quantitated by MTT assay. FIG. 18B. MEN2A (TT) thyroid cancer cells were treated with the indicated concentrations of each inhibitor (7 days) and cell viability was quantitated by MTT assay. FIG. 18C. […] Change in tumor volume was calculated per mouse. Values shown are the median percent change per group. 20 and 10 animals for vehicle and drug treated mice, respectively, were analyzed. FIG. 18D. Body weight measurements of AD80, Vandetanib (VD) and vehicle treated nude mice transplanted with TT cells. Values shown are the median of 20 and 10 animals for vehicle and drug treated mice, respectively.

Ret kinase domain = biological target: T1, Ret kinase domain (Homo sapiens, UniProt P07949); test: In vitro kinase assay, Ret; assay type: biochemical
T1 construct: determined against a purified form of the Ret kinase domain
T1 sequence (P07949 724-1016 limits assumed): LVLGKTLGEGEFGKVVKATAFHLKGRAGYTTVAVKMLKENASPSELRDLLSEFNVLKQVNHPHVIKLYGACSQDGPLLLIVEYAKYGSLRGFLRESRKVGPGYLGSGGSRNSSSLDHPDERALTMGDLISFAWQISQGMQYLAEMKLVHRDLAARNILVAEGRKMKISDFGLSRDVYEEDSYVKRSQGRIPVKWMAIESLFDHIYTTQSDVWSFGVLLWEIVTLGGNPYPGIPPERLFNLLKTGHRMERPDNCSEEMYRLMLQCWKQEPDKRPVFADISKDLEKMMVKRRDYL
Method: FIG. 1D. […] Half maximal inhibitory concentrations (IC50) were determined against a purified form of the Ret kinase domain.
as §1, §2

Src = Src (Homo sapiens, UniProt P12931); test: In vitro kinase assay, Src; assay type: biochemical; details: in vitro kinase profile, 1 μM
Src, sequence (P12931 whole entry): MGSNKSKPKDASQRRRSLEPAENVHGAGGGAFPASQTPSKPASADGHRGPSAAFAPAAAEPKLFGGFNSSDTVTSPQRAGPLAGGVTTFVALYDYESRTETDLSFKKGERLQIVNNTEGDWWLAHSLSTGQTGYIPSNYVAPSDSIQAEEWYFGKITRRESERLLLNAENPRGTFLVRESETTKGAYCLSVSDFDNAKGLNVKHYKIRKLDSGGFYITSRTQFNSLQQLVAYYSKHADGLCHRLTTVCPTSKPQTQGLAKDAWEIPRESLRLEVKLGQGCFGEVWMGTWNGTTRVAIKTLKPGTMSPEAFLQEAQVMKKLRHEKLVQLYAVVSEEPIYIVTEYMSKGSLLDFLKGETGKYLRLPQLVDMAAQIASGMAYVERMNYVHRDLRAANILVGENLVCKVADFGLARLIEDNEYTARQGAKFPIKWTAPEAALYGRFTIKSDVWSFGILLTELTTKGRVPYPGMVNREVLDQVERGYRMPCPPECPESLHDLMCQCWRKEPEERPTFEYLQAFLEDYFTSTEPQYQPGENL
Method: as §1, §2

B-Raf = B-Raf (Homo sapiens, UniProt P15056); test: In vitro kinase assay, B-Raf; assay type: biochemical; details: in vitro kinase profile, 1 μM
B-Raf, sequence (P15056 whole entry): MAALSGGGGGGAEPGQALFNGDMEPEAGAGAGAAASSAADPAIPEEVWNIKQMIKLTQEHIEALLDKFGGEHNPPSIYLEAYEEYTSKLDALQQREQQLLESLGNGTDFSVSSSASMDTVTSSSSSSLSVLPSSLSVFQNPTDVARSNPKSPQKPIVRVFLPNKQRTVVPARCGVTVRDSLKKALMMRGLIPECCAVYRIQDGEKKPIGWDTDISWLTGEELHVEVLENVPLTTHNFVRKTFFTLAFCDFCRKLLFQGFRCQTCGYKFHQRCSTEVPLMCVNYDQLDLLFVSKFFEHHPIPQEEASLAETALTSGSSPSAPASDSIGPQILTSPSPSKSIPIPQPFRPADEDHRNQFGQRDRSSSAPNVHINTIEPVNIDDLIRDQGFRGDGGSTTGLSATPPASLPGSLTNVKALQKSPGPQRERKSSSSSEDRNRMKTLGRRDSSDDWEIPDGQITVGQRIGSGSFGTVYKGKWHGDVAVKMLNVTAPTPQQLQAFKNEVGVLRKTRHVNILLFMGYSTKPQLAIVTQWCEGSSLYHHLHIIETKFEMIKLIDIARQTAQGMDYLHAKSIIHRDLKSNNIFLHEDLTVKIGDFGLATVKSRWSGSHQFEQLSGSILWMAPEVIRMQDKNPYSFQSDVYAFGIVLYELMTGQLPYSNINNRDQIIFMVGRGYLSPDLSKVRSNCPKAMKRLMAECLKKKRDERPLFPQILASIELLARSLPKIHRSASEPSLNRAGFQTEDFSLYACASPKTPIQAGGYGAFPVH
Method: as §1, §2

[4] = Pharmacokinetic profile in murine models; assay type: in vivo, mouse
From the text: In addition to the experiments with AD57 and AD80 in drosophila, we have examined these molecules in murine models of cancer.

EGFR (T790M) = EGFR (T790M) (Homo sapiens, UniProt P00533, T790M); test: In vitro kinase assay, EGFR gatekeeper mutant; assay type: biochemical; details: 1 μM
EGFR (T790M), sequence (P00533 25-1210 T790M): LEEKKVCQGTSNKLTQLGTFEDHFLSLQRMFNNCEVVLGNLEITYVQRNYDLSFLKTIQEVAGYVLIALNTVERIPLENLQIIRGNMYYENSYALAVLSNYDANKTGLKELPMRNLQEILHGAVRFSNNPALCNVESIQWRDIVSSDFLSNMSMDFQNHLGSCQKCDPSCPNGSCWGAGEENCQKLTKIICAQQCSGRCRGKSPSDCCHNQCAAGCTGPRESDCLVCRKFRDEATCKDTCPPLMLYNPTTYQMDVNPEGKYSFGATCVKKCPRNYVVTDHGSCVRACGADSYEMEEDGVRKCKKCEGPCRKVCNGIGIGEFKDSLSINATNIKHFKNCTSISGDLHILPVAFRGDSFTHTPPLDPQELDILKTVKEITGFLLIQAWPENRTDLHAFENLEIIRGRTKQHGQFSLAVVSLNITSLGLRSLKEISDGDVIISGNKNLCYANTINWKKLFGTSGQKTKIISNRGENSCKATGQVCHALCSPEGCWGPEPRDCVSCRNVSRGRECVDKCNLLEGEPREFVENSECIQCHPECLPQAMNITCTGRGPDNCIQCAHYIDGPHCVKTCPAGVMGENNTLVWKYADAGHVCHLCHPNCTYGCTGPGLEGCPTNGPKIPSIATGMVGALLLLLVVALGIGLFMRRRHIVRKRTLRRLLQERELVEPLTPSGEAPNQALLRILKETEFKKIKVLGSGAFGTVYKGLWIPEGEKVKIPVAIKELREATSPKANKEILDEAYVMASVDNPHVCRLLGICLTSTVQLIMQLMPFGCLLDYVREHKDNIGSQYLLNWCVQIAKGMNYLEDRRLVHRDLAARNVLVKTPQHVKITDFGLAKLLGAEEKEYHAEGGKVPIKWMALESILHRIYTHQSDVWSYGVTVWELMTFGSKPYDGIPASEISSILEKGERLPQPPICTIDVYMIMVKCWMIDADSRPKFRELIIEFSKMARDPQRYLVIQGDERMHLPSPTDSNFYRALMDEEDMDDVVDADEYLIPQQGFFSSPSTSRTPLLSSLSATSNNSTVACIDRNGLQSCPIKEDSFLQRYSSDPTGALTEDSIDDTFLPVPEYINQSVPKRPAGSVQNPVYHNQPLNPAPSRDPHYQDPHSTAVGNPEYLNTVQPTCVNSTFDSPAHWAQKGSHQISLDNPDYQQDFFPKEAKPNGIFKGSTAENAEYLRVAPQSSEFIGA
Method: FIG. 10F. Selectivity profiles for a subset of kinases. The gatekeeper mutant alleles of RET, ABL1, and EGFR are V804L, T315I and T790M, respectively.
as §1

[5] = test system: 266 kinases (approximately one-half of the human kinome); test: Kinome-wide in vitro kinase profiling; assay type: biochemical; details: 1 μM; among AD36, AD57, AD58
From the text: (§3) FIG. 6A-6C Select Screen Inhibition Data for Tyrosine Kinases. Percent inhibition of kinase activity. Dark gray is greater than 80% inhibition, white is 40-80% inhibition, and light gray is less than 40% inhibition. Hashed boxes indicate no useful data was obtained. Full assay conditions described at www.invitrogen.com/kinaseprofiling.
as §3, with “7A-7F” for “6A-6C”, “Serine/Threonine” for “Tyrosine”
as §3, with “8” for “6A-6C”, “Lipid” for “Tyrosine”
as §1

Structure (SMILES)	mTor inhibition, in words (mTor)	induction of apoptosis (AnnexinV/PI positive cells) (TPC1 cells; combination with MEK inhibitor PD325901, 72 h)	induction of apoptosis (AnnexinV/PI positive cells) (TPC1 cells; single agent, 72 h)	S6K inhibition, in words (S6K)	phospho-Ret and downstream biomarkers [1]	cell death (protein markers of apoptosis) [1]	inhibition of MZ-CRC-1 cell viability / proliferation, in words [2]	inhibition of TT cell viability / proliferation, in words [3]	Ret inhibition, in words (Ret kinase domain; in vitro kinase profile, 1 μM)	Src inhibition, in words (Src)	B-Raf (Raf) inhibition, in words (B-Raf)	pharmacokinetic profile, in words [4]	inhibition of EGFR (T790M) versus wild type (EGFR (T790M))	IC50, fold more potent than Sorafenib ([2]; MZ-CRC-1 cell viability)	number of kinases inhibited at a cutoff of greater than 80% inhibition [5]	IC50, fold lower than Vandetanib ([3]; TT cell line, dose-response)	potency for Ret in vitro (Ret kinase domain; purified Ret kinase domain)
CC(C)n1nc(-c2ccc(NC(=O)Nc3cc(C(F)(F)F)ccc3F)cc2)c2c(N)ncnc21 [AD80]	not and greatly reduced mTor activity and lack significant inhibitory activity	robust induction of apoptosis	does not lead to induction of apoptosis	inhibited	potent downregulation of phospho-Ret; also recorded: potent inhibitors	induce cell death	inhibited proliferation	inhibited proliferation	inhibited	inhibited	inhibited	pharmacokinetic profiles in a range that is similar to several clinical agents	–	–	–	–	–
CC(C)n1nc(-c2ccc(NC(=O)Nc3cccc(C(F)(F)F)c3)cc2)c2c(N)ncnc21 [AD57]	potent inhibitor	–	–	potent inhibitor	potent inhibitors	induce cell death	most potent inhibition	most potent inhibition	–	potent inhibitor; also recorded: strongly inhibited	potent inhibitor	pharmacokinetic profiles in a range that is similar to several clinical agents	retained or improved on inhibition	approximately 150 fold	most	more than 150 fold	near equal potency
